# Results as given in PubChem BioAssay (NCI).
#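 Each compound was tested at five concentrations against cells in 96-well plates for 48 hours. Abbreviation: GI50, concentration required for 50% inhibition of growth. TGI: concentration producing complete growth inhibition.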
# Tests used:
# Experiment in all cases: growth of human tumour cells (NCI), 48 h
# RXF 393 renal = test system: RXF 393 renal
# SK-OV-3 ovarian = test system: SK-OV-3 ovarian
# A498 renal = test system: A498 renal
# HOP-62 NSCLC = test system: HOP-62 NSCLC
# MDA-MB-231 breast = test system: MDA-MB-231 breast
# SW-620 colon = test system: SW-620 colon
# TK-10 renal = test system: TK-10 renal
# SF-268 CNS = test system: SF-268 CNS
# NCI-H522 lung = test system: NCI-H522 lung
# UACC-257 melanoma = test system: UACC-257 melanoma
SMILES,GI50 (RXF 393 renal) [µM],GI50 (SK-OV-3 ovarian) [µM],TGI (SK-OV-3 ovarian) [µM],GI50 (A498 renal) [µM],TGI (A498 renal) [µM],GI50 (HOP-62 NSCLC) [µM],TGI (HOP-62 NSCLC) [µM],GI50 (MDA-MB-231 breast) [µM],TGI (MDA-MB-231 breast) [µM],GI50 (SW-620 colon) [µM],TGI (SW-620 colon) [µM],GI50 (TK-10 renal) [µM],TGI (TK-10 renal) [µM],GI50 (SF-268 CNS) [µM],TGI (SF-268 CNS) [µM],GI50 (NCI-H522 lung) [µM],TGI (NCI-H522 lung) [µM],TGI (RXF 393 renal) [µM],GI50 (UACC-257 melanoma) [µM],TGI (UACC-257 melanoma) [µM]
COc1ccc(-c2cncn2-c2cc(OC)c(OC)c(OC)c2)cc1F,< 0.0278,< 0.0486,57.2,< 0.0495,25,< 0.0365,> 100,0.103,> 100,< 0.0177,> 100,18.4,> 100,0.0548,> 100,< 0.01,1.03,–,–,–
C[C@@H]1CN2[C@H]3[C@@H]1CC[C@]31CCC(=O)O[C@]1(C)[C@@H]1CC[C@H]3CCC=C3[C@@H]12,> 70,> 70,> 70,> 70,> 70,> 70,> 70,> 70,> 70,> 70,> 70,> 70,> 70,> 70,> 70,> 70,> 70,> 70,–,–
COc1ccc(NC(=O)O[C@H]2[C@H](O[C@H]3[C@@H](O)COC(O[C@H]4C[C@H]5[C@@H]6CC=C7C[C@@H](O)CC[C@]7(C)[C@H]6CC[C@]5(C)[C@H]4[C@H](C)C(=O)CCC(C)C)[C@@H]3OC(C)=O)OC[C@@H](O)[C@@H]2O)cc1 (stereo not given in full),< 0.01,0.015,3.71,< 0.01,< 0.01,< 0.01,1.02,0.318,19.2,< 0.01,0.0664,0.0966,23.8,< 0.01,2.76,< 0.01,0.0759,< 0.01,–,–
C=C(C)[C@@H]1CC[C@]2(C)[C@H](C=CC3=C4C[C@@](C)(CO)CC[C@]4(C)CC[C@]32C)[C@@]1(C)CCCN,1.62,1.72,3.17,1.54,2.9,–,–,1.77,3.27,1.56,3.04,1.78,3.36,1.61,3.25,–,–,3.07,1.87,3.66
CCN(CC)c1ccc2nc3c4ccccc4c(=NC(=O)c4ccccc4-c4c5ccc(N(CC)CC)cc5[o+]c5cc(N(CC)CC)ccc45)cc-3oc2c1,–,12.3,26.6,6.15,23.5,1.81,4.53,1.99,8.91,2.54,> 22.5,10.3,31.5,4.69,19.4,3.14,21.9,–,1.46,3.4
CS[C@@]1(C(=O)Nc2ccc3[nH]nc(-c4ccc(OC(C)C)nc4)c3c2)CCN(CC(=O)N2CC=C(c3ccc(-c4ncn(C)n4)cc3)CC2)C1,–,> 100,> 100,0.176,0.641,0.378,> 100,0.38,> 100,0.201,> 100,0.237,> 100,> 100,> 100,> 51.2,> 100,–,–,–
O=C(/C=C/c1cccc(B(O)O)c1)c1cccc(B(O)O)c1,–,3.16,11.6,1.52,3.5,1.59,3.26,1.58,3.17,0.765,2.31,2.57,6.47,1.8,5.56,1.51,3.02,–,1.38,3.31
CCOC(=O)C(Cc1ccc(OC)cc1)C(=O)OCC,2.61,10.7,55.8,6.54,21.4,9.51,22.6,7.87,27.3,–,–,8.22,26.2,3.73,15.2,2.53,8.73,7.02,3.31,16.3
CCc1ccccc1-n1c(N)c(C#N)c(-c2ccc(OC)c(OC)c2)c(C#N)c1=O,16.3,17.7,36.6,–,–,17.1,34.3,17.1,35.8,33.3,> 100,18,39.4,16.2,31.6,19,44.8,35.3,23.9,72.6
CCOC(=O)CNC(=O)C(CSC(=O)N(C)O)NC(=O)CCC(N)C(=O)O (stereo not given),> 2000,> 2000,> 2000,> 2000,> 2000,> 2000,> 2000,–,–,> 2000,> 2000,> 2000,> 2000,> 2000,> 2000,> 2000,> 2000,> 2000,> 2000,> 2000
Cc1sc(/N=C2/NC(=O)CS2)nc1-c1nc(/N=C2/NC(=O)CS2)sc1C,> 50,–,–,47.1,> 50,35.2,> 50,> 50,> 50,> 50,> 50,> 50,> 50,36.4,> 50,> 50,> 50,> 50,> 50,> 50
Oc1[nH]c2ccc(Cl)cc2c1/C=c1/ccc2c(c1)N=C(c1cc(F)cc(F)c1)N=2,3.37,31.9,> 100,–,–,3.77,45,3.85,> 100,–,–,7.22,> 100,3.7,> 100,2.14,5.74,9.88,–,–
COc1cccc(Nc2nccc(Nc3ccc4[nH]ncc4c3)n2)c1,1.06,2.31,5.4,1.65,5.3,1.71,3.78,–,–,2.41,6.13,1.42,2.82,1.86,5.89,1.48,2.86,2.33,2.04,3.72
